Laboratory results: patent US8906925B2, “Pyrido[4,3-B]indoles containing rigid moieties” (Medivation Technologies, Inc., priority 2008, dated 2014)

Experiments:
histamine receptor H1 = histamine receptor H1 (Homo sapiens, UniProt P35367); assay: Histamine H1 radioligand binding ([3H]Pyrilamine); details: for inhibition at 1 µM: read-out: Histamine Binding (1 μM) H1, percent inhibition of specific binding, 1 μM
Method in brief: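 Values are percent inhibition of specific [3H]pyrilamine (1.2 nM) binding with compounds at ≤1 μM (1% DMSO vehicle); 180 min incubation at 25 °C, pH 7.4 Tris buffer, on CHO-expressed human H1 receptor; 1 μM pyrilamine defined nonspecific binding, bound ligand counted after filtration.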

[1] = biological target: T1, human recombinant histamine H2 receptor (Homo sapiens, UniProt P25021); assay: Histamine H2 radioligand binding ([125I]Aminopotentidine); details: read-out: Histamine Binding (1 μM) H2, percent inhibition of specific binding, 1 μM
T1 construct: expressed in transfected cells; host or cells: Chinese hamster ovary (CHO) K1 cells
T1 sequence (P25021 whole entry): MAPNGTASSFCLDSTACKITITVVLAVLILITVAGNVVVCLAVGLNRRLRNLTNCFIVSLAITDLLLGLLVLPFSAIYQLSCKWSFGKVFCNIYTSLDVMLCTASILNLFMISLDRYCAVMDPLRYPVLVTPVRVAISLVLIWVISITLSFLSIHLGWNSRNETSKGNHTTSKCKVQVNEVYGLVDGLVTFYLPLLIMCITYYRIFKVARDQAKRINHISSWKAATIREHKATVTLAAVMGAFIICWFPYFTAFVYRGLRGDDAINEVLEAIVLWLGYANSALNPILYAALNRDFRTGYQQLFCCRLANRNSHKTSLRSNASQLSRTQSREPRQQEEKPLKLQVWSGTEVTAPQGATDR
Experimental: To evaluate in radioligand binding assays the activity of compounds of the invention, human recombinant histamine H2 receptor expressed in Chinese hamster ovary (CHO) K1 cells (Ruat, M., Proc. Natl. Acad. Sci. USA. 87(5):1658, 1990) in a 50 mM Phosphate buffer, pH 7.4 was used. Compounds of the invention were incubated with 0.1 nM [^125I]Aminopotentidine for 120 min. at 25° C. Non-specific binding was estimated in the presence of 3 μM Tiotidine. Receptor proteins were filtered and washed, the filters were then counted to determine [^125I]Aminopotentidine specifically bound.

[2] = biological target: human dopamine D2L receptor (Homo sapiens, UniProt P14416); assay: Dopamine D2L radioligand binding ([3H]Spiperone); details: percent inhibition of specific binding, compound at 1 μM; for inhibition at 1 µM: read-out: Inhibition of ligand binding, Dopamine D2L
human dopamine D2L receptor, sequence (P14416 whole entry): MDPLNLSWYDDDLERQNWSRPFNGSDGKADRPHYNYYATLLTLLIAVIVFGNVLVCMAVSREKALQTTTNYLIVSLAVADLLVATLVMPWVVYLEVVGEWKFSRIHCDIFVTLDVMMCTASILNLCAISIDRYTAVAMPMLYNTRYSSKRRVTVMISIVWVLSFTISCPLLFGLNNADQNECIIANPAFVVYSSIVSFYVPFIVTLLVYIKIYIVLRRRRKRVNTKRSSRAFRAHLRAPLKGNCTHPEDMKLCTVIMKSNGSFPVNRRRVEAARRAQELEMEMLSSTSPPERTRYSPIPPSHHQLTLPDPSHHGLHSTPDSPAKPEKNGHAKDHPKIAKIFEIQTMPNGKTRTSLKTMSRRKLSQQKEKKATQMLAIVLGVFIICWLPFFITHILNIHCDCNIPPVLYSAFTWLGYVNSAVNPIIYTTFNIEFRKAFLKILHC
From the text: Non-specific binding was estimated in the presence of […] Haloperidol. Receptor proteins were filtered and washed, the filters were then counted to determine [^3H]Spiperone specifically bound. […] Biochemical assay results are presented as the percent inhibition of specific binding in Table 9.

[3] = biological target: T2, human recombinant serotonin (5-Hydroxytryptamine) 5-HT2A receptor (Homo sapiens, UniProt P28223); assay: Serotonin 5-HT2A radioligand binding ([3H]Ketanserin); details: for inhibition at 1 µM: read-out: Inhibition of ligand binding, Serotonin 5-HT2A (percent inhibition of specific binding), compound at 1 μM
T2 construct: expressed in transfected cells; host or cells: Chinese hamster ovary (CHO-K1) cells
T2 sequence (P28223 whole entry): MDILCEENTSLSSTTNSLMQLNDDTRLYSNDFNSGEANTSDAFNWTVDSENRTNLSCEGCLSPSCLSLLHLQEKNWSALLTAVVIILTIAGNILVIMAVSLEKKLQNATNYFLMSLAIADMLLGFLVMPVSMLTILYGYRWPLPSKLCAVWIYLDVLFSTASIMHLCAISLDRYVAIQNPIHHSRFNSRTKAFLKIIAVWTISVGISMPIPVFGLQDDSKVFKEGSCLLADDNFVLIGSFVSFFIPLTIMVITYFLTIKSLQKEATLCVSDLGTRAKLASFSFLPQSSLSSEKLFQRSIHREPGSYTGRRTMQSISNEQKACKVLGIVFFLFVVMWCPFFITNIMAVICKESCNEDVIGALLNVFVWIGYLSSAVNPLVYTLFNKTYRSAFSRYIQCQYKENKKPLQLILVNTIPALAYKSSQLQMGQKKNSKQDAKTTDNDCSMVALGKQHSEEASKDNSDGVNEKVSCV
Experimental: Compounds of the invention were incubated with 0.5 nM [^3H]Ketanserin for 60 min. at 25° C. Non-specific binding was estimated in the presence of 1 μM Mianserin. Receptor proteins were filtered and washed, the filters were then counted to determine [^3H]Ketanserin specifically bound.

[4] = biological target: T3, human recombinant serotonin (5-Hydroxytryptamine) 5-HT2C receptor (Homo sapiens, UniProt P28335); assay: Serotonin 5-HT2C radioligand binding ([3H]Mesulergine); details: read-out: Inhibition of ligand binding, Serotonin 5-HT2C (percent inhibition of specific binding); for inhibition at 1 µM: compound at 1 μM
T3 construct: expressed in transfected cells; host or cells: Chinese hamster ovary (CHO-K1) cells
T3 sequence (P28335 33-458): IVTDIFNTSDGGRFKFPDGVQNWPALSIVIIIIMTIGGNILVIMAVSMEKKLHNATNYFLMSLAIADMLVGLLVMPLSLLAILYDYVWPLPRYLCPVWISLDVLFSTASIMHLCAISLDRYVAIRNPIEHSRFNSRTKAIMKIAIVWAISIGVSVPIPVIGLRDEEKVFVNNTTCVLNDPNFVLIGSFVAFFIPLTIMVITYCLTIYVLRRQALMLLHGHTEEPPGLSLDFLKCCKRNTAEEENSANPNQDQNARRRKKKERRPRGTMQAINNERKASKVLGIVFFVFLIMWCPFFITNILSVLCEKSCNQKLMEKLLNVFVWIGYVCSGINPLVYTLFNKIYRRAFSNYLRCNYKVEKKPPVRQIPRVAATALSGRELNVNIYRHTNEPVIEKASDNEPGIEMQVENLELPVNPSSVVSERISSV
Method in brief: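 Compounds tested at 1 μM or lower (1% DMSO vehicle) for displacement of 1 nM [3H]Mesulergine over 60 min at 25° C. Specific binding determined by filtration counting, with 1 μM Mianserin defining non-specific binding; values are percent inhibition.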

[5] = biological target: T4, human recombinant serotonin (5-Hydroxytryptamine) 5-HT6 receptor (Homo sapiens, UniProt P50406); assay: Serotonin 5-HT6 radioligand binding ([3H]LSD); details: read-out: Inhibition of ligand binding, Serotonin 5-HT6 (percent inhibition of specific binding); for inhibition at 1 µM: compound at 1 μM
T4 construct: expressed in transfected cells; host or cells: human HeLa cells
T4 sequence (P50406 whole entry): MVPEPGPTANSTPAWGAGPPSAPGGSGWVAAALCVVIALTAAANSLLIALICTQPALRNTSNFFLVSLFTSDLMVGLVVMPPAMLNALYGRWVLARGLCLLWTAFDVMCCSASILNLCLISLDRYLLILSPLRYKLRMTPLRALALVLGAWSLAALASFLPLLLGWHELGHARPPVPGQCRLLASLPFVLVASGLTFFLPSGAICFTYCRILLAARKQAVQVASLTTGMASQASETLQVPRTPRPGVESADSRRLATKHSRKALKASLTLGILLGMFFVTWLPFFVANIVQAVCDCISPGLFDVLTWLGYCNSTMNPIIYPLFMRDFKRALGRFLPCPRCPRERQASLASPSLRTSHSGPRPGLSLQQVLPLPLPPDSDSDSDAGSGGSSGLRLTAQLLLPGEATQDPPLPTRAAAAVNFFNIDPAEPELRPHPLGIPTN
Experimental: Compounds of the invention were incubated with 1.5 nM [3H]Lysergic acid diethylamide (LSD) for 120 min. at 37° C. […] Receptor proteins were filtered and washed, the filters were then counted to determine [3H]LSD specifically bound. Compounds were screened at 1 μM or lower, using 1% DMSO as vehicle. Biochemical assay results are presented as the percent inhibition of specific binding in Table 10.

[6] = biological target: human recombinant serotonin (5-Hydroxytryptamine) 5-HT7 receptor (Homo sapiens, UniProt P34969); assay: Serotonin 5-HT7 radioligand binding ([3H]LSD); details: read-out: Inhibition of ligand binding, Serotonin 5-HT7 (percent inhibition of specific binding); for inhibition at 1 µM: compound at 1 μM
human recombinant serotonin (5-Hydroxytryptamine) 5-HT7 receptor, sequence (P34969 whole entry): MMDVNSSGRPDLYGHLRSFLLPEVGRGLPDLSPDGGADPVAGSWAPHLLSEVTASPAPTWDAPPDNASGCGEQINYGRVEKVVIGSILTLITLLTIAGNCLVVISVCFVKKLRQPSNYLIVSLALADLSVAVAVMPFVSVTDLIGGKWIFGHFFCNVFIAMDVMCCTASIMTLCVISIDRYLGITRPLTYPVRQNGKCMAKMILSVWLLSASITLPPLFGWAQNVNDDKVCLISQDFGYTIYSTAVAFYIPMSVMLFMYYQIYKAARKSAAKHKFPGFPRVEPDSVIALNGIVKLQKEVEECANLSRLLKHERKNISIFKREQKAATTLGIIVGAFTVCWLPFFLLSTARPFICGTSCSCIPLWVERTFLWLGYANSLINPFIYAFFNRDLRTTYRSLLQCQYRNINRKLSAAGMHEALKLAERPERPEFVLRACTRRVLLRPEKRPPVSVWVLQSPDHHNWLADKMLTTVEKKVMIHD
From the text: Receptor proteins were filtered and washed, the filters were then counted to determine [^3H]LSD specifically bound.

histamine receptor H1, sequence (P35367 whole entry): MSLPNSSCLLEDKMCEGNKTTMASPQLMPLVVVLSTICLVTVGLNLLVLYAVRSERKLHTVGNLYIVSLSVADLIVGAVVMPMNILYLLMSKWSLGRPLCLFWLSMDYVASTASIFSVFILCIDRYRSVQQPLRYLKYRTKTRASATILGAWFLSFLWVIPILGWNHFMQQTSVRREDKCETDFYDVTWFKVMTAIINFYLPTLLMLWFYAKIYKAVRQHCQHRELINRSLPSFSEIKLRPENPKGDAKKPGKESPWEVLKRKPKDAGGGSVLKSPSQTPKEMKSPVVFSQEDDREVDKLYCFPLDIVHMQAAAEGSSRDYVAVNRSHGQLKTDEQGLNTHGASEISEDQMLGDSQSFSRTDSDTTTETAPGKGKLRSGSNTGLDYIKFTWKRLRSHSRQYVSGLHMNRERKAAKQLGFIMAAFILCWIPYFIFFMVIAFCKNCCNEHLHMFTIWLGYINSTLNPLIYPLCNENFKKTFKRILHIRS

| SMILES | inhibition at 1 µM (histamine receptor H1) | inhibition at 1 µM [1] | inhibition at 1 µM [2] | inhibition at 1 µM [3] | inhibition at 1 µM [4] | inhibition at 1 µM [5] | inhibition at 1 µM [6] | Histamine Binding (1 μM) H1, percent inhibition of specific binding (histamine receptor H1; 1 μM) | Inhibition of ligand binding, Dopamine D2L ([2]; 1 µM) | inhibition at 0.1 µM ([3]; read-out: Inhibition of ligand binding, Serotonin 5-HT2A (percent inhibition of specific binding), compound at 0.1 μM) | inhibition at 0.1 µM ([4]; compound at 0.1 μM) | inhibition at 0.1 µM ([5]; compound at 0.1 μM) | inhibition at 0.1 µM ([6]; compound at 0.1 μM) |
| --- | --- | --- | --- | --- | --- | --- | --- | --- | --- | --- | --- | --- | --- |
| C/C(=C\n1c2c(c3cc(Cl)ccc31)CN(C)CC2)c1ccc(Cl)c(Cl)c1 [Compound 103, (E)-8-chloro-5-(2-(3,4-dichlorophenyl)prop-1-enyl)-2,3,4,5-tetrahydro-2-methyl-1H-pyrido[4,3-b]indole] | 81% | 101% | 49% | 101% | 98% | 89% | 90% | – | – | – | – | – | – |
| CN1CCc2c(c3cc(F)ccc3n2CC(C)(O)c2ccncc2)C1 (stereo not shown) [Compound 181, 1-(8-fluoro-2-methyl-3,4-dihydro-1H-pyrido[4,3-b]indol-5(2H)-yl)-2-(pyridin-4-yl)propan-2-ol] | 0% | 25% | 8% | 77% | 80% | 32% | 30% | – | – | – | – | – | – |
| CN1CCc2c(c3cc(Cl)ccc3n2CC(O)c2ccncc2)C1 (stereo not shown) [Compound 183, 2-(8-chloro-2-methyl-3,4-dihydro-1H-pyrido[4,3-b]indol-5(2H)-vyl)-1-(pyridin-4-yl)ethanol] | 91% | 47% | 15% | 82% | 78% | 72% | 74% | – | – | – | – | – | – |
| CN1CCc2c(c3ccc(Cl)cc3n2CC(C)(O)c2ccncc2)C1 (stereo not shown) [Compound 184, 1-(7-chloro-2-methyl-3,4-dihydro-1H-pyrido[4,3-b]indol-5(2H)-yl)-2-(pyridin-4-yl)propan-2-ol] | 23% | 57% | 1% | 82% | 65% | 31% | 48% | – | – | – | – | – | – |
| CN1CCc2c(c3cccc(F)c3n2CC(C)(O)c2ccncc2)C1 (stereo not shown) [Compound 185, 1-(6-fluoro-2-methyl-3,4-dihydro-1H-pyrido[4,3-b]indol-5(2H)-yl)-2-(pyridin-4-yl)propan-2-ol] | 8% | 29% | -1% | 82% | 83% | 26% | 41% | – | – | – | – | – | – |
| CN1CCc2c(c3ccccc3n2CC(C)(O)c2ccncc2)C1 (stereo not shown) [Compound 186, 1-(2-methyl-3,4-dihydro-1H-pyrido[4,3-b]indol-5(2H)-yl)-2-(pyridin-4-yl)propan-2-ol] | 1% | 22% | 3% | 74% | 72% | 12% | 37% | – | – | – | – | – | – |
| Cc1ccc2c(c1)c1c(n2CC(C)(O)c2ccc(O)cc2)CCN(C)C1 (stereo not shown) [Compound 187, 4-(1-(2,8-dimethyl-3,4-dihydro-1H-pyrido[4,3-b]indol-5(2H)-yl)-2-hydroxypropan-2-yl)phenol] | 36% | 57% | 35% | 102% | 99% | 98% | 94% | – | – | – | – | – | – |
| COc1ccc2c(c1)c1c(n2CC(C)(O)c2ccncc2)CCN(C)C1 (stereo not shown) [Compound 188, 1-(8-methoxy-2-methyl-3,4-dihydro-1H-pyrido[4,3-b]indol-5(2H)-yl)-2-(pyridin-4-yl)propan-2-ol] | 8% | 13% | -5% | 50% | 66% | 9% | 45% | – | – | – | – | – | – |
| CN1CCc2c(c3cc(Cl)c(Cl)cc3n2CC(C)(O)c2ccncc2)C1 (stereo not shown) [Compound 189, 1-(7,8-dichloro-2-methyl-3,4-dihydro-1H-pyrido[4,3-b]indol-5(2H)-yl)-2-(pyridin-4-yl)propan-2-ol] | 77% | 85% | 2% | 96% | 91% | 87% | 82% | – | – | – | – | – | – |
| CN1CCc2c(c3c(Cl)c(Cl)ccc3n2CC(C)(O)c2ccncc2)C1 (stereo not shown) [Compound 190, 1-(8,9-dichloro-2-methyl-3,4-dihydro-1H-pyrido[4,3-b]indol-5(2H)-yl)-2-(pyridin-4-yl)propan-2-ol] | -11% | 9% | -15% | 71% | 52% | 31% | 47% | – | – | – | – | – | – |
| COc1ccc(/C(C)=C/n2c3c(c4cc(C)ccc42)CN(C)CC3)cc1F [Compound 214, (E)-5-(2-(3-fluoro-4-methoxyphenyl)prop-1-enyl)-2,8-dimethyl-2,3,4,5-tetrahydro-1H-pyrido[4,3-b]indole] | 23% | 100% | 83% | 93% | 95% | 94% | 97% | – | – | – | – | – | – |
| C/C(=C\n1c2c(c3cc(Cl)ccc31)CN(C)CC2)c1cc(Cl)cc(Cl)c1 [Compound 215, (E)-8-chloro-5-(2-(3,5-dichlorophenyl)prop-1-enyl)-2-methyl-2,3,4,5-tetrahydro-1H-pyrido[4,3-b]indole] | 89% | 98% | 36% | 97% | 96% | 97% | 90% | – | – | – | – | – | – |
| C/C(=C\n1c2c(c3cc(F)ccc31)CN(C)CC2)c1ccncc1 [Compound 216, (E)-8-fluoro-2-methyl-5-(2-(pyridin-4-yl)prop-1-enyl)-2,3,4,5-tetrahydro-1H-pyrido[4,3-b]indole] | 47% | 61% | 97% | 99% | 94% | 104% | 79% | 49% | 98% | 98% | 83% | 100% | 66% |
